Measured values as given in patent publication US20090123907A1 (priority 2004, published 2009).

How the values were obtained:
[1] = system: Staphylococcus epidermidis; assay: Colony counts of PRP samples subcultured on nutrient agar; format: cell-based; details: for Colony Counts: PRP 1% citrate spiked with about 10 cfu/ml, room temperature
Procedure: In the experiment anticoagulated blood (0.4% citrate by weight) was centrifuged to produce platelet Rich Plasma (PRP). To test samples of PRP citric acid stock solution containing sufficient lysine to bring the solution pH to 7.0 was added to increase the citrate concentration to 1% by weight. Following this addition the pH of the mixture was 6.7. It will be apparent to one of skill in the art that the precise ratio of basic amino acid to citrate can be altered to adjust the pH of the either the stock solution or the final blood mixture. One sample of original PRP was used as the Normal Control, and one sample of the lysine citrate PRP was used as the Citrate Control. One sample of original PRP was inoculated with cultured Staphylococcus epidermidis to a final concentration of about 10 cfu/ml—this formed the Spiked Normal. […] The samples were incubated at room temperature for five days. Each day the number of platelets in each sample was counted; each sample was also tested for LDH (lactate dehydrogenase) and for the ability to induce a clot. Following the tests an aliquot of each sample was subcultured on nutrient agar and incubated under growth conditions.

[2] = Level of calcium measured in blood with citrate anticoagulants
Excerpt: Lysine citrate is compared to traditional sodium citrate. The various citrate levels are expressed as a weight percentage of citrate so that equivalent levels have the same amount of citrate. The same blood was used throughout so that all of the samples started with the same calcium concentration. Since citrate is an effective chelator of calcium one expects the measured level of calcium to decrease with increasing levels of citrate as more and more of the calcium is “tied up” by the citrate. There is an equilibrium between free measurable calcium and calcium associated with citrate molecules. As the concentration of citrate is increased, calcium levels are lowered as there is a higher and higher probability that a given calcium ion will be interacting with a citrate molecule. […] There are at least two different ways of interpreting phenomenon. It is possible that when lysine molecules interact with citrate molecules, the interaction somehow prevents the chelation of calcium. This would explain the higher calcium measurements because there would effectively be a lower level of citrate present. […] That too would explain the higher measured calcium level but does little to solve the remainder of the conundrum. […] Thus, another advantage of lysine citrate is enhanced patient safety and a simpler plasmapheresis set up since it will not longer be necessary to administer protective doses of calcium.

[3] = system: red blood cells; assay: Red blood cell integrity during storage at 4° C.; format: cell-based; design: MCV Day 20 / MCV Day 33: unit not given here; details: for RBC Day 1: whole blood; for MCV Day 20 / MCV Day 33: whole blood stored at 4° C.
Procedure: In this experiment whole blood (an aliquot of which clotted within 10 minutes without anticoagulant) was modified by adding a number of different anticoagulant compositions. Sodium citrate was used as an anticoagulant at 0.65%, 0.75% and 0.9% by weight. These are all higher citrate levels than the usual 0.4% by weight. Amino acid citrates (lysine or arginine) were used at 0.65%, 0.75% and 0.9% by weight based on the weight of the citric acid. The amino acid counterion was used in sufficient quantity to adjust the pH as explained above.
To judge red cell condition the blood was counted and various other measurements were taken initially and after 20 and 33 days of storage at 4° C. Apparent initial/differences in RBC counts are due to dilution caused by adding extra anticoagulant. Mean cell volume (MCV) is a red cell index that is a useful measure of red cell health. […] It is believed that a citrate level of at least about 1.0% by weight (i.e., more than two times the usual amount) is necessary to ensure against all activation of plasma proteins. […] On the other hand, amino acid citrates, which are very effective anticoagulants, are also effective at preventing red cell damage.

In the case of `NCCCC[C@H](N)C(=O)O.O=C(O)CC(O)(CC(=O)O)C(=O)O` [Lysine Citrate, lysine citrate], the “Colony Counts” value ([1]; Day 1) is reported as 10, the “Colony Counts” value ([1]; Day 2) is reported as 7 and the “Colony Counts” value ([1]; Day 3) is reported as 5. For the same molecule, the “Colony Counts” value ([1]; Day 4) was 9, the “Colony Counts” value ([1]; Day 5) was 7 and the “bacteria following plating onto nutrient agar” value ([1]; unspiked PRP 1% citrate) was “no bacteria”. For the same molecule, the “Level of calcium measured” value ([2]; Citrate Level 0.01%) was 9.2 mg/dL, the “Level of calcium measured” value ([2]; Citrate Level 0.05%) was 9.1 mg/dL and the “Level of calcium measured” value ([2]; Citrate Level 0.1%) was 7.1 mg/dL. The “Level of calcium measured” value ([2]; Citrate Level 0.25%) was 4.8 mg/dL, the “Level of calcium measured” value ([2]; Citrate Level 0.5%) was 1.6 mg/dL and the “Level of calcium measured” value ([2]; Citrate Level 1%) was 0.4 mg/dL. The “RBC Day 1” value ([3]; anticoagulant 0.65 wgt %) was 5.37 10^6/μl, the “MCV Day 20” value ([3]; anticoagulant 0.65 wgt %) was 93.0 and the “MCV Day 33” value ([3]; anticoagulant 0.65 wgt %) was 93.8. For the same molecule, the “RBC Day 1” value ([3]; anticoagulant 0.75 wgt %) was 6.78 10^6/μl, the “MCV Day 20” value ([3]; anticoagulant 0.75 wgt %) was 92.7 and the “MCV Day 33” value ([3]; anticoagulant 0.75 wgt %) was 92.7. For the same molecule, the “RBC Day 1” value ([3]; anticoagulant 0.90 wgt %) was 5.82 10^6/μl, the “MCV Day 20” value ([3]; anticoagulant 0.90 wgt %) was 92.2 and the “MCV Day 33” value ([3]; anticoagulant 0.90 wgt %) was 92.9.

With `O=C([O-])CC(O)(CC(=O)[O-])C(=O)[O-].[Na+].[Na+].[Na+]` [Na Citrate, sodium citrate, reference compound] the “Level of calcium measured” value ([2]; Citrate Level 0.01%) was 9.2 mg/dL, the “Level of calcium measured” value ([2]; Citrate Level 0.05%) was 8.7 mg/dL and the “Level of calcium measured” value ([2]; Citrate Level 0.1%) was 5.3 mg/dL. The “Level of calcium measured” value ([2]; Citrate Level 0.25%) was 2.5 mg/dL, the “Level of calcium measured” value ([2]; Citrate Level 0.5%) was 0.6 mg/dL and the “Level of calcium measured” value ([2]; Citrate Level 1%) was 0 mg/dL. For the same molecule, the “RBC Day 1” value ([3]; anticoagulant 0.65 wgt %) was 5.43 10^6/μl, the “MCV Day 20” value ([3]; anticoagulant 0.65 wgt %) was 97.1 and the “MCV Day 33” value ([3]; anticoagulant 0.65 wgt %) was 94.3. For the same molecule, the “RBC Day 1” value ([3]; anticoagulant 0.75 wgt %) was 5.86 10^6/μl, the “MCV Day 20” value ([3]; anticoagulant 0.75 wgt %) was 98.7 and the “MCV Day 33” value ([3]; anticoagulant 0.75 wgt %) was 103.2. The “RBC Day 1” value ([3]; anticoagulant 0.90 wgt %) was 6.07 10^6/μl, the “MCV Day 20” value ([3]; anticoagulant 0.90 wgt %) was 97.8 and the “MCV Day 33” value ([3]; anticoagulant 0.90 wgt %) was 103.3.
